# How the values were obtained:
# [1] = test system: transplanted tumor of mouse H22 liver cancer; test: Transplanted tumor of mouse H22 liver cancer; conditions: for Tumor Volume (mm3) (d30): d 30; for Body Weight (g) (d1) / Body Weight (g) (d 7): mouse, in vivo
# Procedure: The H22 cell strains cryopreserved in liquid nitrogen were resuscitated in Kunming mice. After 3 generations, the ascites of Kunming mice were taken and placed in a 50 ml centrifuge tube in which 10 ml of 0.9% normal saline was added, and then centrifuging was performed at 1000 rpm for 5 min at room temperature, and the obtained supernatant was removed. Then 10 ml of 0.9% normal saline was added to the tube to blow and mix well, and then the mixture was diluted to 5×10^6 live cells/ml with normal saline after counting. The tube was stored in ice water, and 75% ethanol was used to disinfect the skin under the right armpits of the mice. Each Kunming mouse was soon inoculated subcutaneously with 0.2 ml of the cells at the armpit of the right forelimb.
# In the H22 liver cancer model, the mice inoculated with the tumor were randomly divided into groups with 10 mice in each group on the next day of inoculation. The groups included: a model control group, a positive drug cyclophosphamide control group (CTX, 26 mg/kg), isovaleryl spiramycin I groups with doses of 13, 26 and 52 mg/kg; isovaleryl spiramycin II groups with doses of 13, 26 and 52 mg/kg; isovaleryl spiramycin III groups with doses of 13, 26 and 52 mg/kg. Each group was continuously administered intragastrically for 7 days with a dose of 20 ml/kg.
# The tumor-bearing mice were weighed and sacrificed the next day after the last administration. The subcutaneous tumors were dissected and weighed. The average tumor weight of each group is calculated, and the tumor inhibition rate is calculated.
# Tumor inhibition rate=(1−T/C)×100%
# T: average tumor weight of the drug-administered group; C: average tumor weight of the blank control group.
# [2] = test system: transplanted tumor of HL60 cells; test: HL-60 transplanted tumor in nude mice; conditions: for Tumor Volume (mm3) (d30): d 30
# Procedure: (§1) HL-60 cells in a logarithmic growth phase were taken and subjected to a trypan blue exclusion experiment showing that the cell viability was more than 95%, then the cells were subjected to trypsinization, centrifugation, and supernatant removal. Then cell concentration was adjusted to 1×10^7/ml with matrigel, then each nude mouse was inoculated subcutaneously with 0.2 ml of cells at its right armpit and recorded as the first day of inoculation. When the tumor grows to be greater than or equal to 100 mm^3, the mice were randomly divided into 11 groups with 6 mice in each group: isovaleryl spiramycin I groups with doses of 25, 50 and 100 mg/kg, isovaleryl spiramycin II groups with doses of 25, 50 and 100 mg/kg, and isovaleryl spiramycin III groups with doses of 25, 50 and 100 mg/kg. Each group was continuously administered intragastrically for 30 days with a dose of 20 ml/kg. The mice were sacrificed the next day after drug withdrawal and the indicators were tested. The long diameter and short diameter of the tumor, and the weight of each mouse were recorded every 3 days from drug administration to nude mouse sacrifice.
# (§2) The body weight of the nude mice and the long diameter (a) and short diameter (b) of the transplanted tumor were measured every 3 days, and the tumor volume (v), relative tumor volume (RTV) and relative tumor proliferation rate (T/C) are calculated respectively according to the following formulas, wherein V=a×b^2/2; RTV=V/V0 (V0 is the tumor volume before administration, V is the tumor volume before sacrifice), and T/C (%)=treatment group RTV/model control group RTV×100%.
# (§3) Each mouse was weighed and sacrificed. After the tumor was completely stripped off from the body of the mouse, the non-tumor tissues such as blood stains and fat were removed to weigh the tumor and calculate the tumor growth inhibition rate. The average tumor weight of each group of mice is used as an indicator of efficacy. Tumor growth inhibition rate (%)=(1−the average tumor weight of the treatment group/the average tumor weight of the model group)×100%.
# [3] = test system: transplanted tumor of human renal cell adenocarcinoma cell 769-P; test: 769-P transplanted tumor in nude mice; conditions: for Tumor Volume (mm3) (d 1): d1
# Procedure: as §1, with “Then” for “HL-60 cells in a logarithmic growth phase were taken and subjected to a trypan blue exclusion experiment showing that the cell viability was more than 95%, then the cells were subjected to trypsinization, centrifugation, and supernatant removal. Then”, “group: a model group, a cyclophosphamide group,” for “group:”
# as §2, §3
# [4] = HL-60, high dose (100 mg/kg in method) i.g. 30 days
# [5] = HL-60, low dose (25 mg/kg in method) i.g. 30 days
# [6] = HL-60, medium dose (50 mg/kg in method) i.g. 30 days
# [7] = 769-P, high dose (100 mg/kg in method) i.g. 30 days
# [8] = 769-P, low dose (25 mg/kg in method) i.g. 30 days
# [9] = 769-P, medium dose (50 mg/kg in method) i.g. 30 days
smiles,measurement,setting,value
"CCC(=O)O[C@@H]1CC(=O)O[C@H](C)C/C=C/C=C/[C@H](O[C@H]2CC[C@H](N(C)C)[C@@H](C)O2)[C@H](C)C[C@H](CC=O)[C@H](O[C@@H]2O[C@H](C)[C@@H](O[C@H]3C[C@@](C)(O)[C@@H](OC(=O)CC(C)C)[C@H](C)O3)[C@H](N(C)C)[C@H]2O)[C@H]1OC [Isovaleryl spiramycin III, isovaleryl spiramycin III]",growth of H22 liver cancer in mice,"[1]; 13, 26 and 52 mg/kg i.g. 7 days",significantly inhibit
same,Relative Tumor Proliferation Rate (T/C),[1]; dose 12.5 mg/kg,69.68
same,Relative Tumor Volume (RTV),[1]; dose 12.5 mg/kg,6.92 ± 1.88
same,Tumor Volume (mm3) (d 1),[1]; dose 12.5 mg/kg,121.58 ± 13.44 mm3
same,Tumor Volume (mm3) (d30),[1]; dose 12.5 mg/kg,824.36 ± 143.90 mm3
same,Inhibition Rate (%),[1]; dose 13 mg/kg,33.55%
same,Tumor,[1]; dose 13 mg/kg,1.01 ± 0.22 g
same,Relative Tumor Proliferation Rate (T/C),[1]; dose 25 mg/kg,56.90
same,Relative Tumor Volume (RTV),[1]; dose 25 mg/kg,5.65 ± 1.74
same,Tumor Volume (mm3) (d 1),[1]; dose 25 mg/kg,118.16 ± 21.72 mm3
same,Tumor Volume (mm3) (d30),[1]; dose 25 mg/kg,650.32 ± 171.23 mm3
same,Inhibition Rate (%),[1]; dose 26 mg/kg,44.08%
same,Tumor,[1]; dose 26 mg/kg,0.85 ± 0.34 g
same,Relative Tumor Proliferation Rate (T/C),[1]; dose 50 mg/kg,43.45
same,Relative Tumor Volume (RTV),[1]; dose 50 mg/kg,4.31 ± 1.65
same,Tumor Volume (mm3) (d 1),[1]; dose 50 mg/kg,122.15 ± 49.44 mm3
same,Tumor Volume (mm3) (d30),[1]; dose 50 mg/kg,468.19 ± 110.04 mm3
same,Inhibition Rate (%),[1]; dose 52 mg/kg,51.97%
same,Tumor,[1]; dose 52 mg/kg,0.73 ± 0.45 g
same,Body Weight (g) (d1),[1]; 13 mg/kg,23.67 ± 3.73 g
same,Body Weight (g) (d 7),[1]; 13 mg/kg,26.33 ± 1.43 g
same,Body Weight (g) (d1),[1]; 26 mg/kg,24.13 ± 1.46 g
same,Body Weight (g) (d 7),[1]; 26 mg/kg,27.47 ± 1.21 g
same,Body Weight (g) (d1),[1]; 52 mg/kg,24.32 ± 1.12 g
same,Body Weight (g) (d 7),[1]; 52 mg/kg,27.35 ± 0.80 g
same,Relative Tumor Proliferation Rate (T/C),[2]; [4],39.87%
same,tumor growth inhibition rate,[2]; [4],55.05%
same,Relative Tumor Proliferation Rate (T/C),[2]; [5],76.09%
same,tumor growth inhibition rate,[2]; [5],17.10%
same,tumor volume and relative tumor volume compared with the model group,"[2]; HL-60, low, medium and high doses, P<0.05",significantly lower
same,Relative Tumor Proliferation Rate (T/C),[2]; [6],61.90%
same,tumor growth inhibition rate,[2]; [6],29.92%
same,Inhibition Rate (%),[2]; dose 25 mg/kg,17.10%
same,Relative Tumor Proliferation Rate (T/C),[2]; dose 25 mg/kg,76.09%
same,Relative Tumor Volume (RTV),[2]; dose 25 mg/kg,8.56 ± 1.82
same,Tumor Weight,[2]; dose 25 mg/kg,1.88 ± 0.25 g
same,Tumor Volume (mm3) (d 1),[2]; dose 25 mg/kg,184.12 ± 22.53 mm3
same,Tumor Volume (mm3) (d30),[2]; dose 25 mg/kg,1543.27 ± 190.73 mm3
same,Inhibition Rate (%),[2]; dose 50 mg/kg,29.92%
same,Relative Tumor Proliferation Rate (T/C),[2]; dose 50 mg/kg,61.90%
same,Relative Tumor Volume (RTV),[2]; dose 50 mg/kg,6.96 ± 2.25
same,Tumor Weight,[2]; dose 50 mg/kg,1.59 ± 0.45 g
same,Tumor Volume (mm3) (d 1),[2]; dose 50 mg/kg,189.31 ± 24.59 mm3
same,Tumor Volume (mm3) (d30),[2]; dose 50 mg/kg,1308.87 ± 436.30 mm3
same,Inhibition Rate (%),[2]; dose 100 mg/kg,55.05%
same,Relative Tumor Proliferation Rate (T/C),[2]; dose 100 mg/kg,39.87%
same,Relative Tumor Volume (RTV),[2]; dose 100 mg/kg,4.48 ± 2.94
same,Tumor Weight,[2]; dose 100 mg/kg,1.01 ± 0.41 g
same,Tumor Volume (mm3) (d 1),[2]; dose 100 mg/kg,188.01 ± 27.66 mm3
same,Tumor Volume (mm3) (d30),[2]; dose 100 mg/kg,789.65 ± 404.78 mm3
same,mouse weight compared with the model group,"[2]; mouse, in vivo",no significant changes
same,Body Weight (g) (d1),"[2]; mouse, in vivo, 25 mg/kg",20.60 ± 1.57 g
same,Body Weight (g) (d30),"[2]; mouse, in vivo, 25 mg/kg",20.67 ± 1.51 g
same,Body Weight (g) (d1),"[2]; mouse, in vivo, 50 mg/kg",20.82 ± 1.42 g
same,Body Weight (g) (d30),"[2]; mouse, in vivo, 50 mg/kg",20.59 ± 1.36 g
same,Body Weight (g) (d1),"[2]; mouse, in vivo, 100 mg/kg",20.2l ± l .87 g
same,Body Weight (g) (d30),"[2]; mouse, in vivo, 100 mg/kg",20.25 ± 1.22 g
same,Inhibition Rate (%),"[3]; 769-P nude mice, 25 mg/kg",40.87%
same,Relative Tumor Proliferation Rate (T/C),"[3]; 769-P nude mice, 25 mg/kg",61.59%
same,Relative Tumor Volume (RTV),"[3]; 769-P nude mice, 25 mg/kg",11.37 ± 1.469
same,Tumor Weight,"[3]; 769-P nude mice, 25 mg/kg",1.22 ± 0.46 g
same,Tumor Volume (mm3) (d 1),"[3]; 769-P nude mice, 25 mg/kg",146.32 ± 43.02 mm3
same,Tumor Volume (mm3) (d30),"[3]; 769-P nude mice, 25 mg/kg",1663.32 ± 445.50 mm3
same,Inhibition Rate (%),"[3]; 769-P nude mice, 50 mg/kg",60.50%
same,Relative Tumor Proliferation Rate (T/C),"[3]; 769-P nude mice, 50 mg/kg",51.59%
same,Relative Tumor Volume (RTV),"[3]; 769-P nude mice, 50 mg/kg",9.52 ± 1.67
same,Tumor Weight,"[3]; 769-P nude mice, 50 mg/kg",0.82 ± 0.06 g
same,Tumor Volume (mm3) (d 1),"[3]; 769-P nude mice, 50 mg/kg",180.43 ± 51.70 mm3
same,Tumor Volume (mm3) (d30),"[3]; 769-P nude mice, 50 mg/kg",1717.76 ± 524.33 mm3
same,Inhibition Rate (%),"[3]; 769-P nude mice, 100 mg/kg",64.46%
same,Relative Tumor Proliferation Rate (T/C),"[3]; 769-P nude mice, 100 mg/kg",36.55%
same,Relative Tumor Volume (RTV),"[3]; 769-P nude mice, 100 mg/kg",6.56 ± 0.28
same,Tumor Weight,"[3]; 769-P nude mice, 100 mg/kg",0.73 ± 0.08 g
same,Tumor Volume (mm3) (d 1),"[3]; 769-P nude mice, 100 mg/kg",104.38 ± 12.92 mm3
same,Tumor Volume (mm3) (d30),"[3]; 769-P nude mice, 100 mg/kg",684.88 ± 62.28 mm3
same,Relative Tumor Proliferation Rate (T/C),[3]; [7],35.55%
same,tumor growth inhibition rate,[3]; [7],64.46%
same,Relative Tumor Proliferation Rate (T/C),[3]; [8],61.59%
same,tumor growth inhibition rate,[3]; [8],40.87%
same,tumor volume and relative tumor volume compared with the model group,"[3]; 769-P, low, medium and high doses, P<0.05",significantly lower
same,Relative Tumor Proliferation Rate (T/C),[3]; [9],51.59%
same,tumor growth inhibition rate,[3]; [9],60.50%
same,mouse weight compared with the model group,"[3]; mouse, in vivo",no significant changes
same,Body Weight (g) (d1),"[3]; mouse, in vivo, 25 mg/kg",23.09 ± 1.90 g
same,Body Weight (g) (d30),"[3]; mouse, in vivo, 25 mg/kg",22.72 ± 0.78 g
same,Body Weight (g) (d1),"[3]; mouse, in vivo, 50 mg/kg",22.90 ± 1.00 g
same,Body Weight (g) (d30),"[3]; mouse, in vivo, 50 mg/kg",21.43 ± 1.08 g
same,Body Weight (g) (d1),"[3]; mouse, in vivo, 100 mg/kg",20.49 ± 1.14 g
same,Body Weight (g) (d30),"[3]; mouse, in vivo, 100 mg/kg",22.28 ± 1.72 g

# From patent US20200163984A1, “USE OF ISOVALERYL SPIRAMYCIN I, II AND/OR III IN MANUFACTURING MEDICAMENT FOR TREATING AND/OR PREVENTING TUMOR, AND MEDICAMENT” (SHENYANG FUYANG PHARMACEUTICAL TECHNOLOGY CO., LTD., priority 2017, published 2020)
